Laboratory results from US10059713B2 (Takeda Pharmaceutical Company Limited, priority 2014, dated 2018).

The molecules below were run against human GPR43 (Homo sapiens (Human), UniProt O15552) (assay: Ca-Flux functional assay: determination of agonist/positive allosteric modulator (PAM) activity). Details: CHO-K1 Gα16 cells stably expressing human GPR43; compound added with EC20 sodium acetate; intracellular Ca2+ by FLIPR; does not distinguish agonist from PAM.
Assay type: cell-based
Outline: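 CHO-K1 Gα16 cells stably expressing human GPR43, loaded with Calcium 5 dye 1 h; compounds (10-point half-log from 10 μM) added with sodium acetate at EC20. FLIPR calcium signal gave EC50, two wells per point; agonists and PAMs not distinguished.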

Sequence of human GPR43 (O15552 whole entry): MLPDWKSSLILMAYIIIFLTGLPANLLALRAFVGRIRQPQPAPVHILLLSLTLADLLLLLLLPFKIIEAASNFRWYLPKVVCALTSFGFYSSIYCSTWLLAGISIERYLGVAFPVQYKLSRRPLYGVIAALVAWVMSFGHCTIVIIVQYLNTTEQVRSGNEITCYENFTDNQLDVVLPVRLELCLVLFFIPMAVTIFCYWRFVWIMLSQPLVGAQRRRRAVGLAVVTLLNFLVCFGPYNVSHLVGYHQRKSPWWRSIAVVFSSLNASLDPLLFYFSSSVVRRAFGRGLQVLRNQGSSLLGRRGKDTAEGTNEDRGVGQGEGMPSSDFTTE

Compound | EC50
CC1CN(c2ncnc3c(S(=O)(=O)c4ccccc4)c(N)[nH]c23)CC(C)S1 (stereo not drawn) [Example 197, 7-(benzenesulfonyl)-4-(2,6-dimethylthiomorpholin-4-yl)-5H-pyrrolo[3,2-d]pyrimidin-6-amine] | 4 nM
Nc1[nH]c2c(OCC3CCCC3)ncnc2c1S(=O)(=O)c1ccccc1 [Example 201, 7-(benzenesulfonyl)-4-(cyclopentylmethoxy)-5H-pyrrolo[3,2-d]pyrimidin-6-amine] | 50 nM
Nc1[nH]c2c(OC3CCCC3)ncnc2c1S(=O)(=O)c1ccccc1 [Example 202, 7-(benzenesulfonyl)-4-(cyclopentyloxy)-5H-pyrrolo[3,2-d]pyrimidin-6-amine] | 50 nM
CC1CN(c2ncnc3c(S(=O)(=O)C4CCN(C(=O)OCc5ccccc5)CC4)c(N)[nH]c23)CCO1 (stereo not drawn) [Example 206, benzyl 4-{[6-amino-4-(2-methylmorpholin-4-yl)-5H-pyrrolo[3,2-d]pyrimidin-7-yl]sulfonyl}piperidine-1-carboxylate] | 2640 nM
Cc1nc(C2CCCC2)c2[nH]c(N)c(S(=O)(=O)c3cccc(F)c3)c2n1 [Example 209, 4-cyclopentyl-7-(3-fluorobenzenesulfonyl)-2-methyl-5H-pyrrolo[3,2-d]pyrimidin-6-amine] | 303 nM
CC1CC(Oc2ncnc3c(S(=O)(=O)c4ccccc4)c(N)[nH]c23)CC(C)O1 (stereo not drawn) [Example 210, 7-(benzenesulfonyl)-4-[(2,6-dimethyloxan-4-yl)oxy]-5H-pyrrolo[3,2-d]pyrimidin-6-amine] | 156 nM
Nc1[nH]c2c(OC3CCC(F)(F)CC3)ncnc2c1S(=O)(=O)c1ccccc1 [Example 211, 7-(benzenesulfonyl)-4-[(4,4-difluorocyclohexyl)oxy]-5H-pyrrolo[3,2-d]pyrimidin-6-amine] | 34 nM
CC(Oc1ncnc2c(S(=O)(=O)c3ccccc3)c(N)[nH]c12)C1CCCC1 (stereo not drawn) [Example 212, 7-(benzenesulfonyl)-4-(1-cyclopentylethoxy)-5H-pyrrolo[3,2-d]pyrimidin-6-amine] | 11 nM
CCC(CC)Oc1ncnc2c(S(=O)(=O)c3ccccc3)c(N)[nH]c12 [Example 213, 7-(benzenesulfonyl)-4-(pentan-3-yloxy)-5H-pyrrolo[3,2-d]pyrimidin-6-amine] | 17 nM
Cc1nc(N2CCC3(CC2)CC3)c2[nH]c(N)c(S(=O)(=O)c3ccccc3F)c2n1 [Example 214, 4-{6-azaspiro[2.5]octan-6-yl}-7-(2-fluorobenzenesulfonyl)-2-methyl-5H-pyrrolo[3,2-d]pyrimidin-6-amine] | 9 nM
Nc1[nH]c2c(N3CCC(F)(F)CC3)ccnc2c1S(=O)(=O)c1ccccc1 [Example 219, 3-(benzenesulfonyl)-7-(4,4-difluoropiperidin-1-yl)-1H-pyrrolo[3,2-b]pyridin-2-amine] | 18 nM
COc1cc(F)ccc1S(=O)(=O)c1c(N)[nH]c2c(N3CCOC(C)C3)ncnc12 (stereo not drawn) [Example 222, 7-(4-fluoro-2-methoxybenzenesulfonyl)-4-(2-methylmorpholin-4-yl)-5H-pyrrolo[3,2-d]pyrimidin-6-amine] | 4040 nM
C=C(C)c1nc(C)nc2c(S(=O)(=O)c3ccccc3F)c(N)[nH]c12 [Example 224, 7-(2-fluorobenzenesulfonyl)-2-methyl-4-(prop-1-en-2-yl)-5H-pyrrolo[3,2-d]pyrimidin-6-amine] | 85 nM
Nc1[nH]c2c(C3=CCCCC3)nncc2c1S(=O)(=O)c1ccccc1 [Example 227, 3-(benzenesulfonyl)-7-(cyclohex-1-en-1-yl)-1H-pyrrolo[2,3-d]pyridazin-2-amine] | 103 nM
Nc1[nH]c2c(C3CCCCC3)nncc2c1S(=O)(=O)c1ccccc1 [Example 228, 3-(benzenesulfonyl)-7-cyclohexyl-1H-pyrrolo[2,3-d]pyridazin-2-amine] | 256 nM

Now from value to molecule:

EC50 | Compound
31 nM | Cc1nc(N2CCCC(C)C2)c2[nH]c(N)c(S(=O)(=O)c3cccc(F)c3)c2n1 (stereo not drawn) [Example 198, 7-(3-fluorobenzenesulfonyl)-2-methyl-4-(3-methylpiperidin-1-yl)-5H-pyrrolo[3,2-d]pyrimidin-6-amine]
25 nM | Cc1nc(N2CCOC3(CCCC3)C2)c2[nH]c(N)c(S(=O)(=O)c3cccc(F)c3)c2n1 [Example 199, 7-(3-fluorobenzenesulfonyl)-2-methyl-4-{6-oxa-9-azaspiro[4.5]decan-9-yl}-5H-pyrrolo[3,2-d]pyrimidin-6-amine]
25 nM | Cc1nc(N2C[C@@H](C)O[C@H](C)C2)c2[nH]c(N)c(S(=O)(=O)c3cccc(F)c3)c2n1 [Example 200, 4-[(2R,6R)-2,6-dimethylmorpholin-4-yl]-7-(3-fluorobenzenesulfonyl)-2-methyl-5H-pyrrolo[3,2-d]pyrimidin-6-amine]
11 nM | Cc1nc(N2C[C@@H](C)O[C@H](C)C2)c2[nH]c(N)c(S(=O)(=O)c3ccccc3F)c2n1 [Example 203, 4-[(2R,6R)-2,6-dimethylmorpholin-4-yl]-7-(2-fluorobenzenesulfonyl)-2-methyl-5H-pyrrolo[3,2-d]pyrimidin-6-amine]
15 nM | COc1ccc(S(=O)(=O)c2c(N)[nH]c3c(N4CCOC(C)(C)C4)nc(C)nc23)cc1 [Example 204, 4-(2,2-dimethylmorpholin-4-yl)-7-(4-methoxybenzenesulfonyl)-2-methyl-5H-pyrrolo[3,2-d]pyrimidin-6-amine]
7 nM | Cc1nc(N2CCOC3(CC3)C2)c2[nH]c(N)c(S(=O)(=O)c3ccccc3)c2n1 [Example 205, 7-(benzenesulfonyl)-2-methyl-4-{4-oxa-7-azaspiro[2.5]octan-7-yl}-5H-pyrrolo[3,2-d]pyrimidin-6-amine]
27 nM | Cc1nc(N2CCC3(CC2)CC3)c2[nH]c(N)c(S(=O)(=O)c3ccccc3)c2n1 [Example 207, 4-{6-azaspiro[2.5]octan-6-yl}-7-(benzenesulfonyl)-2-methyl-5H-pyrrolo[3,2-d]pyrimidin-6-amine]
3 nM | Cc1nc(N2CCOC3(CC3)C2)c2[nH]c(N)c(S(=O)(=O)c3ccccc3F)c2n1 [Example 208, 7-(2-fluorobenzenesulfonyl)-2-methyl-4-{4-oxa-7-azaspiro[2.5]octan-7-yl}-5H-pyrrolo[3,2-d]pyrimidin-6-amine]
61 nM | Nc1[nH]c2c(N3CCOC4CCCC43)ncnc2c1S(=O)(=O)c1ccccc1 (stereo not drawn) [Example 215, 7-(benzenesulfonyl)-4-{octahydrocyclopenta[b]morpholin-4-yl}-5H-pyrrolo[3,2-d]pyrimidin-6-amine]
117 nM | N#CC1CN(c2ncnc3c(S(=O)(=O)c4ccccc4)c(N)[nH]c23)CCO1 (stereo not drawn) [Example 216, 4-[6-amino-7-(benzenesulfonyl)-5H-pyrrolo[3,2-d]pyrimidin-4-yl]morpholine-2-carbonitrile]
6 nM | Cc1nc(N2C[C@@H](C)OC[C@H]2C)c2[nH]c(N)c(S(=O)(=O)c3ccccc3)c2n1 [Example 217, 7-(benzenesulfonyl)-4-[(2R,5R)-2,5-dimethylmorpholin-4-yl]-2-methyl-5H-pyrrolo[3,2-d]pyrimidin-6-amine]
2 nM | Cc1nc(N2CCO[C@@H](C)C2)c2[nH]c(N)c(S(=O)(=O)c3ccccc3F)c2n1 [Example 218, 7-(2-fluorobenzenesulfonyl)-2-methyl-4-[(2S)-2-methylmorpholin-4-yl]-5H-pyrrolo[3,2-d]pyrimidin-6-amine]
21 nM | Cc1nc(N2C[C@H](C)OC[C@@H]2C)c2[nH]c(N)c(S(=O)(=O)c3ccccc3)c2n1 [Example 220, 7-(benzenesulfonyl)-4-[(2S,5S)-2,5-dimethylmorpholin-4-yl]-2-methyl-5H-pyrrolo[3,2-d]pyrimidin-6-amine]
104 nM | CCC1(C)CN(c2ncnc3c(S(=O)(=O)c4ccccc4)c(N)[nH]c23)CCO1 (stereo not drawn) [Example 221, 7-(benzenesulfonyl)-4-(2-ethyl-2-methylmorpholin-4-yl)-5H-pyrrolo[3,2-d]pyrimidin-6-amine]
7 nM | Cc1nc(N2C[C@H](C)OC[C@@H]2C)c2[nH]c(N)c(S(=O)(=O)c3ccccc3F)c2n1 [Example 223, 4-[(2S,5S)-2,5-dimethylmorpholin-4-yl]-7-(2-fluorobenzenesulfonyl)-2-methyl-5H-pyrrolo[3,2-d]pyrimidin-6-amine]
14 nM | Cc1nc(N2CCOC(C(F)(F)F)C2)c2[nH]c(N)c(S(=O)(=O)c3ccccc3)c2n1 (stereo not drawn) [Example 225, 7-(benzenesulfonyl)-2-methyl-4-[2-(trifluoromethyl)morpholin-4-yl]-5H-pyrrolo[3,2-d]pyrimidin-6-amine]
13 nM | Cc1nc(N2CCO[C@@H](C)C2)c2[nH]c(N)c(S(=O)(=O)c3ccccc3)c2n1 [Example 226, 7-(benzenesulfonyl)-2-methyl-4-[(2S)-2-methylmorpholin-4-yl]-5H-pyrrolo[3,2-d]pyrimidin-6-amine]
7 nM | Cc1nc(N2CCOC(C)C2)c2[nH]c(N)c(S(=O)(=O)c3cc(F)ccc3F)c2n1 (stereo not drawn) [Example 229, 7-(2,5-difluorobenzenesulfonyl)-2-methyl-4-(2-methylmorpholin-4-yl)-5H-pyrrolo[3,2-d]pyrimidin-6-amine]
22 nM | Cc1nc(OC(C)C2CC2)c2[nH]c(N)c(S(=O)(=O)c3ccccc3)c2n1 (stereo not drawn) [Example 230, 7-(benzenesulfonyl)-4-(1-cyclopropylethoxy)-2-methyl-5H-pyrrolo[3,2-d]pyrimidin-6-amine]
2 nM | Cc1nc(N2CCOC(C(F)(F)F)C2)c2[nH]c(N)c(S(=O)(=O)c3ccccc3F)c2n1 (stereo not drawn) [Example 231, 7-(2-fluorobenzenesulfonyl)-2-methyl-4-[2-(trifluoromethyl)morpholin-4-yl]-5H-pyrrolo[3,2-d]pyrimidin-6-amine]
3 nM | Cc1nc(N2C[C@@H](C)OC[C@H]2C)c2[nH]c(N)c(S(=O)(=O)c3ccccc3F)c2n1 [Example 232, 4-[(2R,5R)-2,5-dimethylmorpholin-4-yl]-7-(2-fluorobenzenesulfonyl)-2-methyl-5H-pyrrolo[3,2-d]pyrimidin-6-amine]
